From patent US5565484A, “Benzenesulphonylindole derivatives for the preparation of medicines” (Sanofi, priority 1993, dated 1996)
Where two headings read alike, the source gives them in different places. Blank lines part the entries; values can stand above or below the compound they belong to.

Key:
[1] = Solubility tests in water of SR 33805 salts; format: physicochemical; conditions: for solubility: (2) water of pH = 3.6
Procedure: (1) solubility in water at 25° C. after stirring for 72 hours
(2) solubility in water of pH = 3.6
(3) solubility after addition of the product to be tested to water at
70° C., stirring and continuation of stirring for 72 h at […]

[2] = test system: Ca^++ surcharge in arterial regions (femoral, mesenteric, aortic etc.); test: Inhibition of the Ca++ surcharge after treatment with vitamin D3 in rats; format: in vivo, rat; conditions: administered twice daily; for minimal effective dose: Rattus norvegicus, 72 h, oral, 3 days
Procedure: 1) Inhibition of the Ca^++ surcharge after treatment with vitamin D3 in rats
A test was performed on rats, to which 300,000 IU/kg of vitamin D3 were administered intramuscularly, followed by oral administration of a daily dose of the compound to be studied. The oral treatment using the compound to be tested was continued for 3 days, the animals were sacrificed and the Ca^++ was then assayed in various arterial regions (femoral, mesenteric, aortic etc.).

[3] = test system: human aortic smooth muscle cells; test: in vitro inhibition of proliferation of human aortic smooth muscle cells; format: cell-based; conditions: read-out: IC50 (inhibition of cell proliferation)
Procedure: "in vitro" tests were carried out using human aortic smooth muscle cells at rest (10^3 cells per test).
These cells were incubated in the presence of minimum eagle medium to which 5% of an agent inducing a cell proliferation was added. These tests were performed with various increasing doses of the compound to be studied compared with controls.

[4] = Hygroscopicity and storage stability of SR 33805 salts; format: physicochemical
[5] = test system: rabbit carotid arteries (myointimal proliferation); test: Inhibition of myointimal proliferation induced in rabbit carotid arteries after lesion of the endothelium; format: in vivo; conditions: oral, 16 days
Procedure: 2) Inhibition of myointimal proliferation induced in rabbit carotid arteries after lesion of the endothelium For this purpose, rabbits from which the endothelium of the carotid artery was removed were used. Two hours before the lesion, the compound to be studied was administered orally. The treatment was continued orally, daily for 16 days, and the surface areas of the intima and of the media were then determined by morphometric measurement.

smooth muscle cells = test: Inhibition of the proliferation of smooth muscle cells (general statements); format: cell-based; conditions: qualitative statement
cardiovascular system = test: Activity on the cardiovascular system
calcium translocation = test: Inhibition of calcium translocation in vitro; format: biochemical
[6] = (3) added to water at 70° C., then stirring 72 h at 25° C., read-out: solubility after addition of the product to be tested to water at 70° C., stirring and continuation of stirring for 72 h at 25° C.
[7] = water, (1) water, 25° C., stirring 72 hours, read-out: solubility in water at 25° C. after stirring for 72 hours
[8] = Homo sapiens, 72 h, inducing agent: foetal growth factor, 3 days incubation
[9] = Homo sapiens, Platelet, 72 h, inducing agent: platelet derived growth factor, 3 days incubation

solubility [1]: 100 µg/mL
solubility thermodynamic at 72 h [1, 6]: 260 µg/mL
solubility thermodynamic at 72 h [1, 7]: 150 µg/mL
Compound: COc1ccc(CCN(C)CCCOc2ccc(S(=O)(=O)c3c(C(C)C)c4ccccc4n3C)cc2)cc1OC [SR 33805 B]

solubility [1]: 79900 µg/mL
solubility thermodynamic at 72 h [1, 6]: 98300 µg/mL
aqueous solubility ([1]; in words, contrary to the other salts of SR 33805): good aqueous solubility
solubility thermodynamic at 72 h [1, 7]: 67500 µg/mL
hygroscopicity [4]: no signs of hygroscopicity
stability under various storage conditions ([4]; various storage conditions): good stability
Compound: COc1ccc(CCN(C)CCCOc2ccc(S(=O)(=O)c3c(C(C)C)c4ccccc4n3C)cc2)cc1OC.CS(=O)(=O)O [SR 33805 C, 1-methyl-3-isopropyl-2-[4-{3-[N-methyl-N-(3,4-dimethoxyphenethyl)amino]propoxy}benzenesulphonyl]-indole methanesulphonate]
minimal effective dose ([2]; aorta, read-out: dose from which significant inhibition of the Ca++ surcharge in the aorta): 2 mg/kg
minimal effective dose ([2]; mesenteric artery, read-out: dose from which significant inhibition of the Ca++ surcharge in the mesenteric artery): 5 mg/kg
IC50 ([3]; Homo sapiens, 72 h, inducing agent: fetal calf serum, 3 days incubation): 900 nM
IC50 [3, 8]: 600 nM
IC50 [3, 9]: 300 nM
minimal effective dose ([5]; Oryctolagus cuniculus, 384 h, read-out: dose from which significant inhibition of myointimal proliferation): 1.5 mg/kg
inhibition of myointimal proliferation ([5]; from the dose of 1.5 mg/kg, significant): -58%

Compound: COc1ccc(CCN(C)CCCOc2ccc(S(=O)(=O)c3c(C(C)C)c4ccccc4n3C)cc2)cc1OC [SR 33805, 1-methyl-3-isopropyl-2-[4-{3-[N-methyl-N-(3,4-dimethoxyphenethyl)amino]propoxy}benzenesulphonyl]indole]
inhibition of the proliferation of smooth muscle cells (smooth muscle cells): most interesting inhibitory potentiality

Compound: COc1ccc([C@@H]2Sc3ccccc3N(CCN(C)C)C(=O)[C@@H]2OC(C)=O)cc1 [Diltiazem]
effect on myointimal hyperplasia ([5]; maximum dose twice 6 mg/kg): no significant effect

Compound: COC(=O)C1=C(C)NC(C)=C(C(=O)OC)C1c1ccccc1[N+](=O)[O-] [Nifedipine]
IC50 [3, 8]: 1000 nM
IC50 [3, 9]: > 10000 nM
effect on myointimal hyperplasia ([5]; maximum dose 6 mg/kg or twice 6 mg/kg): no significant effect

Compound: 3-isopropyl-1-[4-{3-[N-methyl-N-(3,4-dimethoxyphenethyl)amino]propoxy}benzenesulphonyl]-indolizine [Fantofarone]
dose from which significant decrease in the total Ca content ([2]; artery not specified, same experimental conditions): 100 mg/kg
IC50 ([3]; inducing agent: fetal calf serum, 3 days incubation): 5500 nM
IC50 ([3]; inducing agent: foetal growth factor, 3 days incubation): 2000 nM
IC50 ([3]; inducing agent: platelet derived growth factor, 3 days incubation): > 10000 nM
effect on myointimal hyperplasia ([5]; maximum dose 12 mg/kg): no significant effect
inhibition of the proliferation of smooth muscle cells (smooth muscle cells): devoid of such properties or have shown themselves to be endowed with these properties at high, or even subtoxic, doses

solubility [1]: 190 µg/mL
solubility thermodynamic at 72 h [1, 6]: 310 µg/mL
solubility thermodynamic at 72 h [1, 7]: 70 µg/mL
Compound: COc1ccc(CCN(C)CCCOc2ccc(S(=O)(=O)c3c(C(C)C)c4ccccc4n3C)cc2)cc1OC.O=C(O)C(=O)O [SR 33805 A, 1-Methyl-3-isopropyl-2-[4-{3-[N-methyl-N-(3,4-dimethoxyphenethyl)amino]propoxy}benzenesulphonyl]indole hydrogen oxalate]

Compound: CNCCCOc1ccc(S(=O)(=O)c2c(C(C)C)c3ccccc3n2C)cc1 [SR 34549, 1-methyl-3-isopropyl-2-{4-[3-(N-methylamino)propoxy]benzenesulfonyl} indole]
activity on the cardiovascular system (cardiovascular system): very moderate or lack of activity
inhibition of the calcium translocation (calcium translocation): devoid of inhibitory properties
inhibition of the proliferation of smooth muscle cells (smooth muscle cells): strong activity

Compound: COc1ccc(CCN(C)CCCC(C#N)(c2ccc(OC)c(OC)c2)C(C)C)cc1OC (stereo not drawn) [Verapamil]
IC50 ([3]; Homo sapiens, 72 h): 10000 nM
effect on myointimal hyperplasia ([5]; maximum dose twice 6 mg/kg): no significant effect
inhibition of the proliferation of smooth muscle cells (smooth muscle cells): devoid of such properties or have shown themselves to be endowed with these properties at high, or even subtoxic, doses
